The values below are quoted from earlier work in patent US11554095B1, “Mitomycin-C bladder instillation syringe kit” (Edge Pharma, LLC, priority 2019, dated 2023).

For series [1] the following is noted: urine.

Regarding `CO[C@@]12[C@H](COC(N)=O)C3=C(C(=O)C(C)=C(N)C3=O)N1C[C@@H]1N[C@@H]12` [MMC, Mitomycin-C], the “pH of solution in water” value (5 mg/mL solution in water) is reported as 6.0-7.5. Moreover, the “pH of saturated solution” value (saturated solution) is listed as 5.0-9.0. In addition, in series [1] (pH 5, after 2 hours), the “decrease in MMC concentrations” value is 44%. For the same molecule, the “loss of MMC” value in series [1] (pH 7, after 2 hours) was “less than 4%”.
